# Source: patent US20240277732A1, “COMPOSITIONS AND METHODS FOR TREATING BRAIN-GUT DISORDERS” (Enterin, Inc., priority 2018, published 2024)
# Entries after “also recorded” stand apart in the source; their conditions may differ.
# Key:
# [1] = Phase 2 trial Stage 2: systolic blood pressure; assay type: in vivo, human
# [2] = tested on: patients with PD and constipation; assay: Phase 2 trial Stage 2: circadian rhythm of wrist skin temperature; assay type: in vivo, human
# Method: (§1) Assessments were made at baseline and at the end of the fixed dose and washout periods. Circadian system status was evaluated by continuously monitoring wrist skin temperature (Thermochron iButton DS1921H; Maxim, Dallas) following published procedures (Sarabia et al. 2008).
# Circadian rhythm of skin temperature was evaluable in 12 patients (i.e., those who had recordings that extended from baseline through washout). Circadian system functionality was evaluated by continuously monitoring wrist skin temperature using a temperature sensor (Thermochron iButton DS1921H; Maxim, Dallas, TX) (Sarabia et al. 2008). A nonparametric analysis was performed for each participant to characterize DST as previously described (Sarabia et al. 2008; Ortiz-Tudela et al. 2010). […]
# Briefly, this analysis includes the following parameters: (i) the inter-daily stability (the constancy of 24-hour rhythmic pattern over days, IS); (ii) intra-daily variability (rhythm fragmentation, IV); (iii) average of 10-minute intervals for the 10 hours with the minimum temperature (L10); (iv) average of 10-minute intervals for the 5 hours with the maximum temperature (M5) and the relative amplitude (RA), which was determined by the difference between M5 and L10, divided by the sum of both. Finally, the Circadian Function Index (CFI) was calculated by integrating IS, IV, and RA. […]
# [3] = tested on: patients with PD and constipation; assay: Phase 2 trial Stage 2: bowel function under daily oral dosing (stool diary, PAC-QOL, PAC-SYM); assay type: in vivo, human
# Method: Following successful screening, all subjects underwent a 14-day run-in period where the degree of constipation was assessed through a validated daily log (Zinsmeister et al. 2013) establishing baseline CSBMs/week. Subjects with an average of <3 CSBMs/week proceeded to dosing.
# (§2) In Stage 2, 34 patients were evaluated.
# The primary efficacy outcome variable was whether or not a subject was a “success” or “failure”. This is an endpoint based on subject diary entries for the “fixed dose” period prior to the endpoint assessment defined as average complete stool frequency increase by 1 or more over baseline, or 3 or more complete spontaneous stools/week. The subject was deemed a “success” if s/he met one or more of the criteria listed above, otherwise the subject was deemed a “failure”. The primary analysis was based on all subjects with a baseline assessment and an assessment at the end of the “fixed-dose” period and was a comparison of the proportion of successes with 0.10 (the null hypothesis corresponding to no treatment effect).
# [4] = Phase 2 trial: pharmacokinetics of orally administered squalamine (ENT-01); assay type: in vivo, human; settings: estimated against IV squalamine PK of prior clinical studies
# Method: Pharmakokinetics: PK data were collected on the 10 patients enrolled in Stage 1 and 10 patients enrolled in Stage 2 to determine the extent of systemic absorption. In Stage 1, PK data were obtained at each visit, pre-medication, at 1, 2, 4, 8 and 24 hours (Table 10). In Stage 2, PK was measured on days 1 and 6 of the randomization period pre-medication, at 1, 2, 4 and 8 hours (Table 11).
# The mean Cmax, Tmax and T1/2 and AUC of the squalamine ion following squalamine (ENT-01) oral dosing for Stage 1 patients. The PK analyses are only approximate, as the lower limit of the validated concentration range was 10 ng/ml; most of the measured concentrations fell below that value. The mean Cmax, Tmax and T1/2 and AUC of the squalamine ion following squalamine (ENT-01) oral dosing for Stage 2 patients. The PK analyses are only approximate, as the lower limit of the validated concentration range was 0.5 ng/ml.
# [5] = tested on: patients with PD and constipation; assay: Phase 2 trial Stage 2: CNS symptoms (UPDRS, MMSE, PDHQ, BDI-II, sleep diary); assay type: in vivo, human
# Description: Exploratory end-points, in addition to constipation, included for example, (i) depression assessed using the Beck Depression Inventory (BDI-II) (Steer et al. 2000) and Unified Parkinson's Disease Rating Scale (UPDRS); (ii) cognition assessed using the Mini Mental State Examination (MMSE) (Palsteia et al. 2018), Unified Parkinson's Disease Rating Scale (UPDRS), and Trail Making Test (TMT); (iii) sleep and REM-behavior disorder (RBD) using a daily sleep diary, I-Button Temperature Assessment, a REM sleep behavior disorder (RBD) questionnaire (RBDQ) (Stiasny-Kolster et al. 2007), and the UPDRS; (iv) hallucinations assessed using the PD hallucinations questionnaire (PDHQ) (Papapetropoulos et al. 2008), the UPDRS, and direct questioning; (v) fatigue using the Parkinson's Disease Fatigue Scale (PFS-16) and the UPDRS; (vi) motor functions using the UPDRS; and (vii) non-motor functions using the UPDRS.
# as §1
# CNS Symptoms in Stage 2: An exploratory analysis was done with respect to the sleep data, the body temperature data, mood, fatigue, hallucinations, cognition and other motor and non-motor symptoms of PD. Continuous measurements within a subject were compared with a paired t-test and continuous measurements between subject groups were compared with a two-group t-test. Categorical data were compared with a chi-squared test or a Fisher's exact test if the expected cell counts are too small for a chi-squared test.
# [6] = tested on: patients with PD and constipation; assay: Phase 2 trial: adverse events (MedDRA, CTCAE grading); assay type: in vivo, human
# Method: Tolerability limits included diarrhea or vomiting.
# as §2
# [7] = Brain distribution, food intake and body weight after IP or ICV administration; assay type: in vivo; settings: 10 and 40 μg ICV, 5 mg/kg IP
# Description: The purpose of this example was to evaluate the in vivo distribution of the aminosterol Aminosterol 1436 following intraperitoneal administration (IP) and ICV administration, and to determine the impact the drug has on food intake and body weight when administered IP and ICV.
# Additional data regarding in vivo distribution and the effect of the route of administration for an aminosterol is shown in FIG. 7.
# This experiment is relevant as the areas of the brain where the aminosterol Aminosterol 1436 localized upon administration are known to control feeding behavior and appetite.
# [8] = Intranasal pharmacokinetics in plasma; assay type: in vivo, Sprague Dawley rats; settings: Sprague-Dawley, rat, in vivo
# Description: The purpose of this example was to evaluate the in vivo distribution and function of aminosterols, such as Aminosterol 1436 and squalamine, following intranasal administration. This experiment relates to the amount of drug needed to obtain a therapeutic result, based on an IN route of administration. The results described below detail that aminosterols such as Aminosterol 1436 act at the level of the hypothalamus following in vivo administration, regardless of the route of administration.
# [9] = Weight change after IP or IN administration; assay type: in vivo; settings: mice
# Method: The purpose of this example was to evaluate and compare the impact on weight following administration of an aminosterol such as Aminosterol 1436 to mice via IP or IN.
# Mice were administered: (i) intraperitoneally 1 mg/kg or 10 mg/kg of Aminosterol 1436, (ii) intranasally 0.4 mg/kg of Aminosterol 1436, or (iii) a saline control administered IN. Weight of the mice was then measured for 10 days post-administration.
# [10] = PK profile IN versus IV bolus; assay type: in vivo; settings: rat, 2 mg/kg IV bolus
# Description: Thus, the amount of aminosterol in the bloodstream is too low to account for the observed pharmacological effect. This means that when administered IN, an aminosterol is having a pharmacological effect via a mechanism other than via plasma concentration of the drug.
# [11] = Brain distribution of radiolabeled Aminosterol 1436 after IV or ICV administration; assay type: in vivo; settings: rats
# Description: The purpose of this example was to evaluate the in vivo distribution of Aminosterol 1436 following intracerebroventricular (ICV) and intravenous (IV) administration to rats. ICV injection is an invasive injection technique of substances directly into the cerebrospinal fluid in cerebral ventricles to bypass the blood brain barrier. The results described below detail how aminosterols such as Aminosterol 1436 localize in the brain following in vivo administration, regardless of the route of administration.
# Radiolabeled Aminosterol 1436 was injected into rats by two different forms of administration: ICV and IV administration.
smiles,measurement,setting,value
"CC(C)[C@@H](CC[C@@H](C)[C@H]1CC[C@H]2[C@@H]3[C@H](O)C[C@H]4C[C@@H](NCCCNCCCCN)CC[C@]4(C)[C@H]3CC[C@]12C)OS(=O)(=O)O (single isomer, unassigned) [squalamine (ENT-01)]",change of blood pressure at post medication measurement,[1]; Stage 2 subjects with high or low blood pressure,"subjects with high blood pressure demonstrated lower blood pressure at post medication measurement, while subjects with low blood pressure demonstrated higher blood pressure"
same,BP at V4 + 2 hrs post dose,[1]; individual subjects,111 mmHg
same,"markers of healthy circadian function (IS, RA, CFI, IV)","[2]; fixed dose versus baseline, 12 evaluable patients",improved all markers of healthy circadian function; also recorded: significant positive impact on the circadian rhythm of skin temperature
same,"circadian parameters during wash-out (IS, CFI)",[2]; wash-out versus baseline,improvement persisted for several of these circadian parameters
same,response rate (CSBM within 24 h of dosing on at least 2 of 3 days),"[3]; Stage 2, daily oral dosing, 75 mg",26%
same,"CSBM, weekly average (mean, SD)","[3]; Stage 2, fixed dose, n=34, baseline 1.2 (0.90)",3.8 (2.4) /week
same,CSBM frequency,"[3]; patients later randomized to placebo (n=9), fixed dose period on drug, baseline 1.6",3.3 CSBM/week
same,CSBM frequency,"[3]; randomized cohort, treatment arm (n=6), fixed dose period, baseline 0.8",3.2 CSBM/week
same,CSBM frequency,"[3]; randomized cohort, treatment arm (n=6), randomized period 4-6 days, baseline 0.8",2.4 CSBM/week
same,CSBM frequency,"[3]; randomized cohort, treatment arm (n=6), washout, baseline 0.8",0.9 CSBM/week
same,oral bio-availability,[4],less than 0.3%
same,time hallucinations did not return after discontinuation,[5]; 1 patient,4 weeks
same,time hallucinations did not return after discontinuation,[5]; another patient,2 weeks
same,patients in whom hallucinations and delusions improved or disappeared during treatment,[5]; of those with hallucinations (5) or delusions (1) at baseline,5 of 6
same,"Nausea, Mild",[6]; Stage 1 (10 dosed),"4(40) n, %"
same,"Diarrhea, adverse events by dose","[6]; Stage 1, 25 mg",1
same,"Nausea, adverse events by dose","[6]; Stage 1, 25 mg",0
same,"Vomiting, adverse events by dose","[6]; Stage 1, 25 mg",0
same,"Diarrhea, adverse events by dose","[6]; Stage 1, 50 mg",1
same,"Nausea, adverse events by dose","[6]; Stage 1, 50 mg",0
same,"Vomiting, adverse events by dose","[6]; Stage 1, 50 mg",0
same,"Diarrhea, adverse events by dose","[6]; Stage 1, 75 mg",1
same,"Nausea, adverse events by dose","[6]; Stage 1, 75 mg",0
same,"Vomiting, adverse events by dose","[6]; Stage 1, 75 mg",0
same,"Diarrhea, adverse events by dose","[6]; Stage 1, 100 mg",0
same,"Nausea, adverse events by dose","[6]; Stage 1, 100 mg",1
same,"Vomiting, adverse events by dose","[6]; Stage 1, 100 mg",1
same,"Diarrhea, adverse events by dose","[6]; Stage 1, 125 mg",1
same,"Nausea, adverse events by dose","[6]; Stage 1, 125 mg",2
same,"Vomiting, adverse events by dose","[6]; Stage 1, 125 mg",1
same,"Diarrhea, adverse events by dose","[6]; Stage 1, 150 mg",1
same,"Nausea, adverse events by dose","[6]; Stage 1, 150 mg",0
same,"Vomiting, adverse events by dose","[6]; Stage 1, 150 mg",0
same,"Diarrhea, adverse events by dose","[6]; Stage 1, 175 mg",1
same,"Nausea, adverse events by dose","[6]; Stage 1, 175 mg",1
same,"Vomiting, adverse events by dose","[6]; Stage 1, 175 mg",0
same,"Diarrhea, adverse events by dose","[6]; Stage 1, 200 mg",0
same,"Nausea, adverse events by dose","[6]; Stage 1, 200 mg",2
same,"Vomiting, adverse events by dose","[6]; Stage 1, 200 mg",0
same,"Difficulty falling asleep, Mild",[6]; Stage 2 (34 dosed),"1(3) n, %"
same,"Eye infection, Mild",[6]; Stage 2 (34 dosed),"1(3) n, %"
same,"Flatulence, Mild",[6]; Stage 2 (34 dosed),"1(3) n, %"
same,"Urinary retention, Mild",[6]; Stage 2 (34 dosed),"1(3) n, %"
same,"Urinary tract infection, Mild",[6]; Stage 2 (34 dosed),"1(3) n, %"
same,"Worsening hemorrhoid, Mild",[6]; Stage 2 (34 dosed),"1(3) n, %"
same,"Diarrhea, adverse events by dose","[6]; Stage 2, 75 mg",7
same,"Dizziness (lightheadedness included), adverse events by dose","[6]; Stage 2, 75 mg",8
same,"Nausea, adverse events by dose","[6]; Stage 2, 75 mg",3
same,"Diarrhea, adverse events by dose","[6]; Stage 2, 100 mg",10
same,"Dizziness (lightheadedness included), adverse events by dose","[6]; Stage 2, 100 mg",7
same,"Nausea, adverse events by dose","[6]; Stage 2, 100 mg",12
same,"Diarrhea, adverse events by dose","[6]; Stage 2, 125 mg",3
same,"Dizziness (lightheadedness included), adverse events by dose","[6]; Stage 2, 125 mg",8
same,"Nausea, adverse events by dose","[6]; Stage 2, 125 mg",4
same,"Diarrhea, adverse events by dose","[6]; Stage 2, 150 mg",2
same,"Dizziness (lightheadedness included), adverse events by dose","[6]; Stage 2, 150 mg",2
same,"Nausea, adverse events by dose","[6]; Stage 2, 150 mg",11
same,"Diarrhea, adverse events by dose","[6]; Stage 2, 175 mg",1
same,"Dizziness (lightheadedness included), adverse events by dose","[6]; Stage 2, 175 mg",0
same,"Nausea, adverse events by dose","[6]; Stage 2, 175 mg",12
same,"Diarrhea, adverse events by dose","[6]; Stage 2, 200 mg",3
same,"Nausea, adverse events by dose","[6]; Stage 2, 200 mg",6
same,"Diarrhea, adverse events by dose","[6]; Stage 2, 225 mg",3
same,"Nausea, adverse events by dose","[6]; Stage 2, 225 mg",1
same,"Diarrhea, adverse events by dose","[6]; Stage 2, 250 mg",2
CC(C)[C@@H](CC[C@@H](C)[C@H]1CC[C@H]2[C@@H]3[C@H](O)C[C@H]4C[C@@H](NCCCNCCCCNCCCN)CC[C@]4(C)[C@H]3CC[C@]12C)OS(=O)(=O)O [Aminosterol 1436],effect on food intake over 10 days,[7],significant impact on food intake
same,percent change in body weight,[7],decrease in body weight
same,blood levels after intranasal versus peripherally injected administration,[8],10 times
same,AUC_% Extrap_obs,[8]; 0.5 mg/kg,47.6%
same,AUClast/D,[8]; 0.5 mg/kg,18700 kg·ng·h/mL/mg
same,weight change over 10 days,[9]; 0.4 mg/kg IN,decrease in the weight of the mice in an amount comparable to 10 mg/kg of intraperitoneally administered Aminosterol 1436
same,weight change over 10 days,[9]; 1 mg/kg IP,compared similarly to the intranasally administered saline control
same,exposure after IV bolus injection,[10],190 µg·h/mL
same,site of localization in brain,[11]; ICV administration,localized to the same regions of the brain
same,site of localization in brain,[11]; IV administration,localized in the hypothalamus
